Reference: patent US20030138374A1, “Image diagnosis probe based on substituted azobenzene or analogue thereof for disease attributable to amyloid accumulation and composition for image diagnosis containing the same” (priority 2000, published 2003)
Counter-ions that a name gives are not always drawn.

How the values were obtained:
[1] = biological target: T1, amyloid β protein (Homo sapiens, UniProt P05067); assay: β structure recognition of amyloid β protein (thioflavin T fluorescence); type: binding; settings: for β structure recognition (%) at 1 µM / β Structure recognition (%): test compound 1 μM, thioflavin T 3 μM, average of duplicated experiments; for β structure recognition (%) at 1 µM: read-out: β Structure recognition (%); for β structure recognition (in words): comment on Table I
T1 construct: the amyloid β protein (purchased from Peptide Laboratory) was dissolved in a potassium phosphate buffer (pH7.4); purchased Peptide Laboratory
Experimental: (1) Method of Quantifying the Amyloid β Protein Having β Sheet Structure—method of Measuring of Recognition of β Structure in a Test Compound
Then, each 100 microliters of thioflavin T (which emits fluorescence depending on an extent of β structure of the amyloid β protein) dissolved in a glycine-NaOH buffer (pH 8.5) was added (final concentration 3 μM), and the fluorescence was immediately measured with a fluorescent microplate reader (manufactured by Molecular Device, Model fmax) at an excitation wavelength of 442 nm and a measurement wavelength of 485 nm. When the fluorescence of thioflavin alone was regarded as A, the fluorescence under the coexistence of the amyloid β protein and thioflavin T was regarded as B, and the fluorescence under the coexistence of the amyloid β protein, thioflavin T and a test compound was regarded as C, the recognition of β structure for the test compound was calculated by the following formula (unless otherwise indicated, the concentration of a test compound was 1 μM):
β structure recognition for test compound (%)={(B−C)/(B−A)}×100

[2] = Distribution coefficient between water/1-octanol; type: physicochemical; settings: for Distribution coefficient: 1-octanol / phosphate buffer (pH 7.3) or ultra-pure water; for Distribution coefficient (in words): comment on Table I
Experimental: As an oily phase, 1-octanol was used and, as an aqueous phase, a phosphate buffer (pH 7.3) or ultra-pure water was used. A suitable amount of a test compound was dissolved in an oily phase or an aqueous phase, and both phases were placed in the same test tube, and shaken vigorously at room temperature for 30 minutes. After allowing to stand at room temperature over 1 hour, centrifugation at 2000 rpm for 10 minutes was carried out, followed by further standing at room temperature for 1 hour. The aqueous phase and the oily phase were sampled, respectively, and transferred to a 96-well microplate. By using a microplate reader (manufactured by Molecular Device, Model Spectramax 250), the absorbance was measured at a maximum absorbing wavelength for each test compound, and the concentration of the test compound was calculated from a calibration curve previously obtained. A distribution coefficient was calculated by the following formula. Distribution coefficient for test compound =(concentration of test compound in oily phase)/(concentration of test compound in aqueous phase) As the distribution coefficient becomes larger, it can be said that the blood-brain barrier permeability for the test compound is higher.

T1 sequence (P05067 672-711 limits assumed): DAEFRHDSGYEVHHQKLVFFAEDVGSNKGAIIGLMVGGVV

Row | β structure recognition (%) at 1 µM [1] [%] | Structure (SMILES) | other results
1 | 62.2 | CN(C)c1ccc(/N=N/c2ccc(S(=O)(=O)O)cc2)cc1 [SA-125, Methyl Orange] | Distribution coefficient [2]: 1
2 | 35.7 | CN(C)c1ccc(N=Nc2ccc(N)cc2Cl)cc1 [SA-376, Disperse Black 7] | 
3 | 52.4 | CN(C)c1ccc(/N=N/c2ccc(NC(=O)CI)cc2)cc1 [SA-446, N-(4-dimethylamino) azobenzene-4′-iodoacetamide] | 
4 | 86.9 | CN(C)c1ccc(/C=C/c2ccc3ccccc3[n+]2C)cc1 [SA-245, 2-(4-(dimethylamino)stylyl)-1-methyl quinolinium iodide] | β structure recognition (in words) [1]: highly recognize β structure; Distribution coefficient [2]: 10
5 | 23.1 | CCOc1ccc(/N=C/c2ccc(N(C)C)cc2)cc1 [SA-399, N-(4-(dimethylamino)benzylidene)-p-phenetidine] | 
6 | 58 | Nc1ccc(/N=N/c2ccc([N+](=O)[O-])cc2)cc1 [SA-180, Disprese Orange 3] | 
7 |  | CCN(CC)c1ccc(/N=C/c2ccc(N(CC)CC)cc2O)cc1 [BF-021] | β Structure recognition (%) [1]: 70.8%; Distribution coefficient [2]: 30; Distribution coefficient (in words) [2]: high distribution coefficients
8 |  | O.O.O.O.O.O=C([O-])c1cc(N=Nc2ccc(-c3ccc(N=Nc4ccc(O)c(C(=O)[O-])c4)cc3)cc2)ccc1O.[Na+].[Na+] [Chrysamine G 2Na.5H2O, reference compound] | β Structure recognition (%) [1]: 84.5%; Distribution coefficient [2]: 2.7
9 | 83.1 | Nc1ccc(SSc2ccc(N)cc2)cc1 [SA-260, 4-aminophenyldisulfide] | β structure recognition (in words) [1]: highly recognize β structure
10 | 38.4 | COc1cc(N=Nc2ccc(N)cc2)c(C)cc1N [SA-419, 4,4′diamino-5-methoxy-2-methyl azobenze] | 
11 | 7.6 | CN(C)c1ccc(/C=N/c2ccc(O)cc2)cc1 [BF-033] | 
12 |  | CN(C)c1ccc(C=Cc2cccc[n+]2C)cc1.[I-] [SA-247, 2-(4-(dimethylamino)stylyl)-1-metyl pyridinium iodide] | β Structure recognition (%) [1]: 19.5%
13 |  | O=C([O-])c1cc(/C=C/c2ccc(/C=C/c3ccc(O)c(C(=O)[O-])c3)cc2)ccc1O.[Na+].[Na+] [Compound X34.2Na, reference compound] | β Structure recognition (%) [1]: 74.0%; Distribution coefficient [2]: 2.7
14 | 91.9 | CC[n+]1c(/C=C/c2ccc(N(C)C)cc2)ccc2ccccc21 [SA-169, Quinaldine Red] | β structure recognition (in words) [1]: highly recognize β structure; Distribution coefficient [2]: 18
15 |  | Nc1ccc(/N=N/c2ccccc2)cc1 [SA-148, 4-phenyl azoaniline] | β Structure recognition (%) [1]: 28.0%
16 | 71.6 | CCN(CC)c1ccc(N=Nc2ccc(N(C)C)cc2)c(NC(N)=O)c1 [SA-420, 4-(diethylamino)-4′-(dimethylamino)-2-(ureido)azobenzene] | β structure recognition (in words) [1]: highly recognize β structure
17 | 85 | CCN(CC)c1ccc(/N=N/c2ccc(N(C)C)cc2)c(NC(N)=O)c1 [BF-055] | 
18 | 27.8 | CN(C)c1ccc(/N=C2/C=CC(=O)c3ccccc32)cc1 [BF-022] | 
19 |  | CN(C)c1ccc(C=Cc2cccc[n+]2C)cc1.[I-] [SA-213, 2-(4-(dimethylamino)stylyl)-1-methyl pyridinium iodide] | β Structure recognition (%) [1]: 50.7%
20 | 69.1 | CN(C)c1ccc(N=Nc2ccccn2)cc1 [SA-215, 4-(2-pyridylazo)-N,N-dimethylaniline] | β structure recognition (in words) [1]: relatively high recognition of β structure; Distribution coefficient [2]: >100; Distribution coefficient (in words) [2]: highest distribution coefficient

Row | β structure recognition (%) at 1 µM [1] [%] | Structure (SMILES) | other results
21 | 30.7 | CCN(CC)c1ccc(/N=N/c2ccc(S(=O)(=O)O)cc2)cc1 [SA-163, Ethyl Orange Na salt] | 
22 | 53.5 | CN(C)c1ccc(/N=N/c2ccc(C(=O)O)cc2)cc1 [SA-606] | 
23 | 6.8 | CN(C)c1ccc(/C=N/c2ccc(F)cc2)cc1 [SA-407, N-(4-(dimethylamino)benzylidene)-4-fluoroaniline] | 
24 | 25.4 | CN(C)c1ccc(/C=C/c2ccc3ccccc3n2)cc1 [SA-770, 2-(4-(dimethylamino)stylyl) quinoline] | 
25 | 33.9 | CCN(CC)c1ccc(/C=N/c2ccccc2)cc1 [SA-757, N-(4-(diethylamino)benzylidene) aniline] | 
26 | 39.3 | CN(C)c1ccc(/C=N/c2cc3c(ccc4ccccc43)cn2)cc1 [SA-672, benzo(F) isoquinoline-2-yl-(4-dimethylaminobenzylidene)-amine] | 
27 | 42.8 | Cc1cc(N(C)C)ccc1/N=N/c1ccccc1 [SA-135, 4-dimethylamino-2-methyl-azobenzene] | 
28 |  | CN(C)c1ccc(/C=N/c2ccc(F)cc2)cc1.Cl [BF-035] | β Structure recognition (%) [1]: 5.6%
29 | 21.6 | CN(C)c1ccc(SSc2ccc(N(C)C)cc2)cc1 [Compound N-200] | 
30 | 65.4 | CCN(CC)c1ccc(/N=N/c2ccccc2)cc1 [SA-134, 4-(diethylamino) azobenzene] | 
31 | 36 | Nc1ccc(/C=C/c2ccc(N)cc2)cc1 [SA-324, 4,4′-diaminostylbene (2HCl salt)] | 
32 |  | CCN(CC)c1ccc(/N=N/c2ccc(Br)cn2)c(O)c1 [BF-020] | β Structure recognition (%) [1]: 84.4%
33 | 73 | Nc1ccc(/N=N/c2cccc3ccccc23)c(N)c1 [SA-201, Fat Brown RR] | 
34 | 71.2 | CCN(CC)c1ccc(/C=C/c2cc[n+](C)cc2)cc1 [SA-445] | 
35 | 62.7 | CN(C)c1ccc(/N=N/c2ccc(S(=O)(=O)Cl)cc2)cc1 [SA-188, 4-(dimethylamino) azobenzene-4′-sulfonylchloride] | 
36 |  | CCOc1ccc(/N=C/c2ccc(N(C)C)cc2)cc1.Cl [BF-034] | β Structure recognition (%) [1]: 19.7%
37 | 46.5 | CN(C)c1ccc(/N=C/c2ccccc2)cc1 [SA-758, N-benzylidene-N′,N′-dimethylbenzene-1,4-diamine] | 
38 | 53 | CN(C)c1ccc(/C=C/c2ccccn2)cc1 [SA-271] | 
39 | 7.9 | CCc1ccc(/N=C/c2ccc(N(C)C)cc2)cc1 [SA-408, N-(4-(dimethylamino)benzylidene)-4-ethylaniline] | 
40 | 43.3 | Nc1c(SSc2ccc3ccccc3c2N)ccc2ccccc12 [SA-366, 2,2′-dithiobis(1-naphthylamine)] | 

Row | Structure (SMILES) | β structure recognition (%) at 1 µM [1] [%] | other results
41 | O=C(O)c1cc(/C=C/c2ccc(/C=C/c3ccc(O)c(C(=O)O)c3)cc2)ccc1O [Compound X34, 1,4-bis[2-(3-carboxy-4-hydroxyphenyl)eten-yl]-benzene, reference compound] | 73.9 | Distribution coefficient [2]: 3.4
42 | CC[n+]1ccccc1/C=C/c1ccc(N(C)C)cc1 [SA-212, 2-(4-(dimethylamino)stylyl)-1-ethyl pyridinium iodide] | 46 | 
43 | CN(C)c1ccc(/N=N/c2ccc(N)cc2)cc1 [SA-512, N,N-dimethyl-4,4′-azodianiline] | 68.2 | 
44 | Nc1ccc(/N=N/c2ccccc2)cc1 [SA-138, 4-phenyl azoaniline HCl salt] | 35.9 | 
